Results on two compounds are retold here after patent US20140079784A1, “AEROSOLIZED LFA-1 ANTAGONISTS FOR USE IN LOCALIZED TREATMENT OF IMMUNE RELATED DISORDERS” (SARCODE BIOSCIENCE INC., priority 2008, published 2014).

The target in assay [1] is T1, LFA-1 (Homo sapiens, UniProt P20701).
T1 construct: >90% occupancy of LFA-1 with efalizumab led to a greater than 50% clinical improvement in PASI score in a clinical trial; host or cells: leukocytes of psoriasis patients (in vivo)
As to conditions: >90% occupancy of LFA-1; cited from earlier work.

Assay [2] concerns human mononuclear cells (PBMC) stimulated with staphylococcal enterotoxin B (SEB). The assay can be described thus: cells. In kind it is cell-based.

Like-named read-outs stand apart in the source and are kept apart here.

T1 sequence (P20701 26-1170): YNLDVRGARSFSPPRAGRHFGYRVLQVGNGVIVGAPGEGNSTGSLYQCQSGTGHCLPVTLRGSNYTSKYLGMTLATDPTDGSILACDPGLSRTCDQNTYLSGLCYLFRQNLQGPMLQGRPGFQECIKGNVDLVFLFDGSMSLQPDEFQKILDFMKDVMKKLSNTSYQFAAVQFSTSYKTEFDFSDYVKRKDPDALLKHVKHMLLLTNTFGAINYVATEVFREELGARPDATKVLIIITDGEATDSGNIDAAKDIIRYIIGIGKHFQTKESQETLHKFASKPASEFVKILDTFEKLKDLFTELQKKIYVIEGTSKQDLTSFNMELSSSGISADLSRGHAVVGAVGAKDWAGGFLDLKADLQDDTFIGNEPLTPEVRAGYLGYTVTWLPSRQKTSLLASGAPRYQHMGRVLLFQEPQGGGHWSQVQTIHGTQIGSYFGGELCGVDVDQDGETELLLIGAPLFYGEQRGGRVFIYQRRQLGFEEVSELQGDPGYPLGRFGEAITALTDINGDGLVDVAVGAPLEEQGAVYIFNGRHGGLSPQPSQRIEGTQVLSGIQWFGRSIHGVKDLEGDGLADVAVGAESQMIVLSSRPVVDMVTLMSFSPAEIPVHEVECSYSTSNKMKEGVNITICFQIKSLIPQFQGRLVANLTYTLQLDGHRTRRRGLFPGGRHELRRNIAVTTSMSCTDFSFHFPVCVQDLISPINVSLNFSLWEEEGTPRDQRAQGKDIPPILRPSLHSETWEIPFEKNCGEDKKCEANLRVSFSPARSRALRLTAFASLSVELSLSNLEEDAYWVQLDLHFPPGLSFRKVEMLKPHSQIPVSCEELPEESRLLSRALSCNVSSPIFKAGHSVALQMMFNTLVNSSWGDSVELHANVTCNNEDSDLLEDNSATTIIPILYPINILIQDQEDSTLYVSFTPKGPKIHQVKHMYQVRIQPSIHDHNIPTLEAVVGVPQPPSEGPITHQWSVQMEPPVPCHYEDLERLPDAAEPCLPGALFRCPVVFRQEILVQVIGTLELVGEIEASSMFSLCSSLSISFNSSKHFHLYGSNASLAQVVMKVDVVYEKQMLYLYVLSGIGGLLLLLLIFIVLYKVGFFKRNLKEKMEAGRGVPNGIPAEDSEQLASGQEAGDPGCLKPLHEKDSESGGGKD
T1 sequence (P05107 23-769 partner): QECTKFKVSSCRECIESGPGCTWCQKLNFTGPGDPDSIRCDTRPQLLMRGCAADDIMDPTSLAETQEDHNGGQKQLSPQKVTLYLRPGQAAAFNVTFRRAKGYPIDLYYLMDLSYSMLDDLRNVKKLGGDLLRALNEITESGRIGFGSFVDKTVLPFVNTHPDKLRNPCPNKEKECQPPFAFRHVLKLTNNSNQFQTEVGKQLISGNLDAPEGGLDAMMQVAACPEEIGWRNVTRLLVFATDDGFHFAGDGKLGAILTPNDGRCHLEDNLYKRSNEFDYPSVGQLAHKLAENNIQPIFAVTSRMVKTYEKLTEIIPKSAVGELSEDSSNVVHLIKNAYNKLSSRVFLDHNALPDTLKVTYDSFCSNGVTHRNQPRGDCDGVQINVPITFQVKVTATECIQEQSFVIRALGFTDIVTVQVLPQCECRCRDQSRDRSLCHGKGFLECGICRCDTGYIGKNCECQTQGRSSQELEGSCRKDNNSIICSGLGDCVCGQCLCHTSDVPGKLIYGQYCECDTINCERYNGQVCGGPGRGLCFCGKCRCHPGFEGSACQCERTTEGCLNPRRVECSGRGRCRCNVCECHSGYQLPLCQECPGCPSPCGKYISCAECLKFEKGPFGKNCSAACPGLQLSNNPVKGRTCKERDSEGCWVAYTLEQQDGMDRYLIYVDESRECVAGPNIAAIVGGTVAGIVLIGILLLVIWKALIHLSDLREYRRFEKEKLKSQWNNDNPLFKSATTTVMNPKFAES

Turning to “efalizumab: anti-LFA-1 (CD11a) antibody evaluated in plaque psoriasis”, the “clinical improvement in PASI score” value in assay [1] is “greater than 50%”.
Broadly, the EC50 is the midpoint of the concentration-response curve. `O=C(NC(Cc1cc(=O)[nH]c2ccccc12)C(=O)O)c1ccc(Cl)cc1` (centres unmarked) [Rebamipide]: the EC50 in assay [2] (read-out: EC50 Cytokine Release GM-CSF), in assay [2] (read-out: EC50 Cytokine Release IFNγ), in assay [2] (read-out: EC50 Cytokine Release IL-1α), in assay [2] (read-out: EC50 Cytokine Release IL-1β), in assay [2] (read-out: EC50 Cytokine Release IL-2) and in assay [2] (read-out: EC50 Cytokine Release IL-3) was over 1 mM throughout. Further, the EC50 in assay [2] (read-out: EC50 Cytokine Release IL-4), in assay [2] (read-out: EC50 Cytokine Release IL-5), in assay [2] (read-out: EC50 Cytokine Release IL-6), in assay [2] (read-out: EC50 Cytokine Release IL-10), in assay [2] (read-out: EC50 Cytokine Release IL-12p40) and in assay [2] (read-out: EC50 Cytokine Release IL-13) was over 1 mM throughout. Besides, the EC50 in assay [2] (read-out: EC50 Cytokine Release IP-10), in assay [2] (read-out: EC50 Cytokine Release MCP-1), in assay [2] (read-out: EC50 Cytokine Release MIP-1α) and in assay [2] (read-out: EC50 Cytokine Release TNF-α) was over 1 mM in each case.
